Peptide text beside a SMILES is read from it.
Target: T1, ASIC1a N416C (Homo sapiens, UniProt P78348, N416C)
T1 construct: expressed in transfected cells; host or cells: Xenopus laevis oocytes injected with cRNA
T1 sequence (P78348 1-528 N416C): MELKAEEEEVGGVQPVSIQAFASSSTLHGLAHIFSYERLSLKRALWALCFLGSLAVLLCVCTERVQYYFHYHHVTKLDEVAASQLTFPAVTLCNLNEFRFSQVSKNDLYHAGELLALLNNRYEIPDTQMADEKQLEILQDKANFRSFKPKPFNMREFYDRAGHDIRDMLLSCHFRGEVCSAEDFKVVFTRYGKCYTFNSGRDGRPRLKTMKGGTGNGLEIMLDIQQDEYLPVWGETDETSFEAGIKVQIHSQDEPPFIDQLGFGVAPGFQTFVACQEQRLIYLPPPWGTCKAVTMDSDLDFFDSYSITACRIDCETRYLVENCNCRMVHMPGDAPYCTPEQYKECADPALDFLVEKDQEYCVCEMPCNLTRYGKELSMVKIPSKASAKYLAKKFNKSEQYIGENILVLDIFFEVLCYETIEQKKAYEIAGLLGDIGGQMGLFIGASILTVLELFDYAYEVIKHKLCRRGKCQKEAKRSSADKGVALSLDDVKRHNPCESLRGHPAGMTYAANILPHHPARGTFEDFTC
Experiment: Disappearance of FRRFa-induced Isust on washout, N416C
Assay type: cell-based
Conditions: washout after 50 μM FRRFa 45 s, n = 9
Protocol: Figure 6 Mutations of the palm change FRRFa modulation of ASIC1a. Mutants containing “-ET” in their name had been exposed during 3 min to 1 mM MTSET prior to the experiment. (a) Representative current traces of the mutant E418C in the absence and presence of 50 μM FRRFa. (b) Bar graph of the Isust/Ipeak ratio induced by pH5 of WT and mutants as indicated (n = 5–41). For (b,g–i) *p < 0.05; **p < 0.01, ***p < 0.001, ****p < 0.0001, different from WT. (c) Ratio of 50 μM FRRFa-induced increase in Isust/Ipeak (n = 5–41). (d) Ratio of 500 μM FRRFa-induced increase in Isust/Ipeak (n = 5–11). For (b–d) ^#p < 0.05; ^##p < 0.01; ^###p < 0.001; ^####p < 0.0001; ratio different from the ratio in WT. (e) FRRFa concentration-response curve of the Isust/Ipeak current ratio induced by pH5 in oocytes expressing N416C, n = 8. The WT curve is shown for comparison (n = 7–11). (f) Time course of disappearance of the FRRFa-induced sustained current in the N416C mutant and in WT. 50 μM FRRFa was applied for 45 s, and then washed out. […]
Electrophysiological measurements were performed 1–2 days after cRNA injection. Ion currents were recorded using two-electrode voltage-clamp at a holding potential of −60 mV with a Dagan TEV-200 amplifier (Minneapolis, MN). […] The amplitude of the sustained current was measured in the last two seconds of the pH5 perfusion. […]

Question: Which koff does the source give for `N=C(N)NCCC[C@H](NC(=O)[C@H](CCCNC(=N)N)NC(=O)[C@@H](N)Cc1ccccc1)C(=O)N[C@@H](Cc1ccccc1)C(N)=O` [FRRFa, Phe-Arg-Arg-Phe-amide] (H-FRRF-NH2) here?
Answer: Its koff is 0.027 ± 0.003 s⁻¹.

From article PMC6385203, “Mutations in the palm domain disrupt modulation of acid-sensing ion channel 1a currents by neuropeptides” (Scientific Reports, 2019)
